Data reported in patent US6355799B1, “Substituted benzene compounds, process for their preparation, and herbicidal and defoliant compositions containing them” (ISK Americas Incorporated, priority 1997, dated 2002).

Key:
Assay type in all cases: in vivo
[1] = tested on: barnyardgrass (Echinochloa crus-galli, ECHCG); assay: Post-emerge test, greenhouse herbicide activity screening; details: post-emerge, 14 days after application, rating scale 0-100
How it was run: (§1)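 Each test used a mechanized track sprayer delivering 187 l/ha of acetone solution at 15–1000 g ai/ha. Post-emerge foliage at 2–3 leaves was treated with added 0.25% v/v non-ionic surfactant and bottom-watered only. Injury was assessed on day 14, where 100 means total kill.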

[2] = tested on: velvetleaf (Abutilon theophrasti, ABUTH); assay: as above; details: post-emerge, 14 days after application, rating scale 0-100
How it was run: as §1

[3] = tested on: sicklepod (Cassia obtusifolia, CASOB); assay: as above; details: post-emerge, 14 days after application, rating scale 0-100
How it was run: as §1

[4] = tested on: ivyleaf morningglory (Ipomoea hederacea, IPOHE); assay: as above; details: post-emerge, 14 days after application, rating scale 0-100
How it was run: as §1

[5] = tested on: green foxtail (Setaria viridis, SETVI); assay: as above; details: post-emerge, 14 days after application, rating scale 0-100
How it was run: as §1

[6] = tested on: large crabgrass (Digitaria sanguinalis, DIGSA); assay: as above; details: post-emerge, 14 days after application, rating scale 0-100
How it was run: as §1

[7] = tested on: johnsongrass (Sorghum halepense, SORHA); assay: as above; details: post-emerge, 14 days after application, rating scale 0-100
How it was run: as §1

[8] = tested on: redroot pigweed (Amaranthus retroflexus, AMARE); assay: as above; details: post-emerge, 14 days after application, rating scale 0-100
How it was run: as §1

[9] = tested on: barnyardgrass (Echinochloa crus-galli, ECHCG); assay: Pre-emerge test, greenhouse herbicide activity screening; details: pre-emerge, 14 days after application, scale 0-100
How it was run: (§2)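 Visual ratings on a 0-100 scale (0 no damage, 100 all plants dead) were taken at 14 days after treatment. Rates of 15-1000 g ai/ha in acetone, 187 l/ha, were sprayed onto soil one day after planting (pre-emerge) or onto 2-3 leaf plants with 0.25% v/v surfactant (post-emerge).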

[10] = tested on: lambsquarters (Chenopodium album, CHEAL); assay: as above; details: pre-emerge, 14 days after application, scale 0-100
How it was run: as §2

[11] = tested on: velvetleaf (Abutilon theophrasti, ABUTH); assay: as above; details: pre-emerge, 14 days after application, scale 0-100
How it was run: as §2

[12] = tested on: sicklepod (Cassia obtusifolia, CASOB); assay: as above; details: pre-emerge, 14 days after application, scale 0-100
How it was run: as §2

[13] = tested on: ivyleaf morningglory (Ipomoea hederacea, IPOHE); assay: as above; details: pre-emerge, 14 days after application, scale 0-100
How it was run: as §2

[14] = tested on: green foxtail (Setaria viridis, SETVI); assay: as above; details: pre-emerge, 14 days after application, scale 0-100
How it was run: as §2

[15] = tested on: large crabgrass (Digitaria sanguinalis, DIGSA); assay: as above; details: pre-emerge, 14 days after application, scale 0-100
How it was run: as §2

[16] = tested on: johnsongrass (Sorghum halepense, SORHA); assay: as above; details: pre-emerge, 14 days after application, scale 0-100
How it was run: as §2

[17] = tested on: redroot pigweed (Amaranthus retroflexus, AMARE); assay: as above; details: pre-emerge, 14 days after application, scale 0-100
How it was run: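 Herbicidal damage is scored 0 (none) to 100 (complete plant death) two weeks after a simulated field spray. Rates span 15–1000 g ai/ha, delivered in acetone at 187 l/ha. For post-emergence treatments, plants have 2–3 leaves and the spray carries 0.25% v/v non-ionic surfactant.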

SMILES: Cn1c(C(F)(F)F)cc(=O)n(-c2c(F)cc(Cl)cc2NC(=O)c2ccc3ccccc3c2)c1=O [Compound 2-145, 3-[4-chloro-6-fluoro-2-(2-naphthoylamino)phenyl]-1-methyl-6-trifluoromethyl-2,4(1H, 3H)-pyrimidinedione]
- ECHCG phytotoxicity rating ([1]; 63 g ai/ha): 0
- ECHCG phytotoxicity rating ([1]; 250 g ai/ha): 20
- ABUTH phytotoxicity rating ([2]; 63 g ai/ha): 100
- ABUTH phytotoxicity rating ([2]; 250 g ai/ha): 100
- CASOB phytotoxicity rating ([3]; 63 g ai/ha): 100
- CASOB phytotoxicity rating ([3]; 250 g ai/ha): 100
- IPOHE phytotoxicity rating ([4]; 63 g ai/ha): 100
- IPOHE phytotoxicity rating ([4]; 250 g ai/ha): 100
- SETVI phytotoxicity rating ([5]; 63 g ai/ha): 0
- SETVI phytotoxicity rating ([5]; 250 g ai/ha): 40
- DIGSA phytotoxicity rating ([6]; 63 g ai/ha): 0
- DIGSA phytotoxicity rating ([6]; 250 g ai/ha): 10
- SORHA phytotoxicity rating ([7]; 63 g ai/ha): 0
- SORHA phytotoxicity rating ([7]; 250 g ai/ha): 10
- AMARE phytotoxicity rating ([8]; 63 g ai/ha): 95
- AMARE phytotoxicity rating ([8]; 250 g ai/ha): 100
- phytotoxicity rating ECHCG ([9]; 63 g ai/ha): 35
- phytotoxicity rating ECHCG ([9]; 250 g ai/ha): 60
- phytotoxicity rating CHEAL ([10]; 63 g ai/ha): 100
- phytotoxicity rating CHEAL ([10]; 250 g ai/ha): 100
- phytotoxicity rating ABUTH ([11]; 63 g ai/ha): 90
- phytotoxicity rating ABUTH ([11]; 250 g ai/ha): 100
- phytotoxicity rating CASOB ([12]; 63 g ai/ha): 40
- phytotoxicity rating CASOB ([12]; 250 g ai/ha): 90
- phytotoxicity rating IPOHE ([13]; 63 g ai/ha): 10
- phytotoxicity rating IPOHE ([13]; 250 g ai/ha): 100
- phytotoxicity rating SETVI ([14]; 63 g ai/ha): 60
- phytotoxicity rating SETVI ([14]; 250 g ai/ha): 100
- phytotoxicity rating DIGSA ([15]; 63 g ai/ha): 90
- phytotoxicity rating DIGSA ([15]; 250 g ai/ha): 100
- phytotoxicity rating SORHA ([16]; 63 g ai/ha): 30
- phytotoxicity rating SORHA ([16]; 250 g ai/ha): 50
- phytotoxicity rating AMARE ([17]; 63 g ai/ha): 100
- phytotoxicity rating AMARE ([17]; 250 g ai/ha): 100
